From patent publication US10947245B2, “Crystal form A of 2-butoxy-7-(4-(pyrrolidin-1-ylmethyl)benzyl)-5H-pyrrolo[3,2-d]pyrimidin-4-amine for inhibiting toll-like receptor activity” (priority 2016, dated 2021)

Tests used:
Toll-like receptor 7 = target: T1, Toll-like receptor 7 (Homo sapiens, UniProt Q9NYK1); assay: Toll-like receptor 7 in vitro receptor binding activity screen (HEK-blue hTLR7 cell, Quanti-Blue alkaline phosphatase readout); type: cell-based; conditions: versus GS-9620
T1 construct: host or cells: HEK-blue hTLR7 cell (HEK293-derived reporter line)
T1 sequence (Q9NYK1 27-1049): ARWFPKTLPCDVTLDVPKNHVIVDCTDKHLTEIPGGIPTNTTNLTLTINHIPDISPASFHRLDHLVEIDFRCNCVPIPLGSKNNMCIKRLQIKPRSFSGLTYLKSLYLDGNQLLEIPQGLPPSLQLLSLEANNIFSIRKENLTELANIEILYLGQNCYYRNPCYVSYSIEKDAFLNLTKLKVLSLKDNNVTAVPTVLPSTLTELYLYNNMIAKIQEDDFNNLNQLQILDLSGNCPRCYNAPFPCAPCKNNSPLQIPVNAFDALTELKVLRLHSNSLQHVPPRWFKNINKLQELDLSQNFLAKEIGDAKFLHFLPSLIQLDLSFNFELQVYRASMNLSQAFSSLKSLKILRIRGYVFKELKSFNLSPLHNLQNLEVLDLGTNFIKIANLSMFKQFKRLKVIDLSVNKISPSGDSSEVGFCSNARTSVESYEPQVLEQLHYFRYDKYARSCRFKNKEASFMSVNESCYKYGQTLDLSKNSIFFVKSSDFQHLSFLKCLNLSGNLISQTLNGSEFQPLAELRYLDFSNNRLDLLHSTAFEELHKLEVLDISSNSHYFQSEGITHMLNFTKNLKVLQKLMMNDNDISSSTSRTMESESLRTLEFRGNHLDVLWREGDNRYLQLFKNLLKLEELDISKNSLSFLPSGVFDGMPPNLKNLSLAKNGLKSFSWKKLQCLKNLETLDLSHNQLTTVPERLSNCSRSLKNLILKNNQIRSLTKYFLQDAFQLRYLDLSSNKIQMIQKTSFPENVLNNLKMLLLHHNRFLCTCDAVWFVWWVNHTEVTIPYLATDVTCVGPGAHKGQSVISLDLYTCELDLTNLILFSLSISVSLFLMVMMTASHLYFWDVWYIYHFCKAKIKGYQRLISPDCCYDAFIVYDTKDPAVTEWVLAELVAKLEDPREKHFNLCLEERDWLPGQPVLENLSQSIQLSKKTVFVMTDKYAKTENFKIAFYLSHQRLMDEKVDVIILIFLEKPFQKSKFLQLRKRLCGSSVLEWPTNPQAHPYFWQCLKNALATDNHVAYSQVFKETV
Experimental: (§1) Efficacy example 1: Toll-like receptor 7 and Toll-like receptor 8 in vitro receptor binding activity screen
(§2) HEK-blue hTLR7 cell and HEK-blue hTLR8 cell (available from InvivoGen)
(§3) The compounds were gradient diluted with DMSO in 3-fold using liquid work station POD starting at a concentration of 10 mmol/L and 10 points were diluted (2nd column to 11th column, and each point was duplicated). At 12th column, 1 μL of 5 mg/mL positive compound R848 was added as positive control; and at 1st column, 1 μL of DMSO was added as negative control. Each well contained 1 μL of DMSO.
(§4) 2. The cells in culture flask were collected and the cell density was diluted to 250,000 cells/mL.
(§5) 3. 200 μL (50,000 cells/well) of cell suspension was added into prepared compound plate and the final concentration of DMSO in each well was 0.5%.
(§6) 4. The culture plates containing cells and the compounds were incubated in CO2 incubator for 24 h at 37° C., 5% CO2.
(§7) 5. After 24 h incubation, 20 μL of supernatant was removed from each well to a 96-well transparent assay plate. To each well of the assay plate was added 180 μL of Quanti-Blue reagent and the plate was incubated in an incubator at 37° C., 5% CO2 for 1 h.
(§8) 6. After 1 h, the content of alkaline phosphatase in 20 μL of supernatant was determined using Microplate Reader OD650.
(§9) 7. EC50 of each compound was obtained with Prism software.

Toll-like receptor 8 = target: T2, Toll-like receptor 8 (Homo sapiens, UniProt Q9NR97); assay: Toll-like receptor 8 in vitro receptor binding activity screen (HEK-blue hTLR8 cell, Quanti-Blue alkaline phosphatase readout); type: cell-based; conditions: versus GS-9620
T2 construct: host or cells: HEK-blue hTLR8 cell (HEK293-derived reporter line)
T2 sequence (Q9NR97 27-1041): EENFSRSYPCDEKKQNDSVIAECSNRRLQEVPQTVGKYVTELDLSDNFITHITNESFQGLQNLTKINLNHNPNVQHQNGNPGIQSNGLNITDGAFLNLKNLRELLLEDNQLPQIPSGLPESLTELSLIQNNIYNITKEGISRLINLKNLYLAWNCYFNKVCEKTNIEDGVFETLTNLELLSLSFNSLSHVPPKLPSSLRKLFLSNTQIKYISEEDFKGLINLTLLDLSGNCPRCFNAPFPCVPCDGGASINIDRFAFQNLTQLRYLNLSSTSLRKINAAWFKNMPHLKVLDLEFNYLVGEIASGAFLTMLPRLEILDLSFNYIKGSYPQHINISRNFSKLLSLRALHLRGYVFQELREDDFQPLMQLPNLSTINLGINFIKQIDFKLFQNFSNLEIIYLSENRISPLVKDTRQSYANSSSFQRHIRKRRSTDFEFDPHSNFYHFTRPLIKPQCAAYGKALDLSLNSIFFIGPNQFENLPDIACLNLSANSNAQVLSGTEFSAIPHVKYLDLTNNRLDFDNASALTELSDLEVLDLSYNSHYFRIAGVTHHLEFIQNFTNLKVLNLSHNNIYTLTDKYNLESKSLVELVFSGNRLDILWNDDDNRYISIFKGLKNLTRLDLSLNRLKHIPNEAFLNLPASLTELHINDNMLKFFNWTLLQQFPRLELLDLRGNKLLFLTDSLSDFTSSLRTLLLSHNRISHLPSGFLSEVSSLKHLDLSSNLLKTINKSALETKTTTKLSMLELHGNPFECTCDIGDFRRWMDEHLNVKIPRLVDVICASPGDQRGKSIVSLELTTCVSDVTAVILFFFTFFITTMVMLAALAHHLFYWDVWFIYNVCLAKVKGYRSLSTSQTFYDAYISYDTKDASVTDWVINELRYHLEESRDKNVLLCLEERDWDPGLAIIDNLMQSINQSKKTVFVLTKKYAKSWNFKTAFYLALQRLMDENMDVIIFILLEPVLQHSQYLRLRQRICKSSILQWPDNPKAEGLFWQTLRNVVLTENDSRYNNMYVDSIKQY
Experimental: as §1, §2, §3, §4, §5, §6, §7, §8, §9

[1] = test system: human peripheral blood mononuclear cells (PBMC); assay: Peripheral blood mononuclear cell test: cytokine stimulation (CBA, flow cytometer); type: cell-based; conditions: for TNF-α MEC / IFN-α MEC: human PBMC, 24 h; for IFN-α MEC: lowest drug concentration stimulating the production of 30 pg/mL of IFN-α
Experimental: The purpose of this example is to determine the expression level of cytokines 24 h after stimulation to human peripheral blood mononuclear cells (PBMC) with the compound of formula I.
The cell supernatant was assayed without dilution and the levels of IFN-α were directly determined. The compound of formula I was firstly formulated into 20 mM DMSO stock solution during the test and was gradient diluted with cell medium in 10-fold with the total number of 11 diluting points. The compounds in 9 diluting points (the highest concentration was 200 μmol/L) were added into 96-well plate with 50 μL in each well. Fresh human peripheral blood mononuclear cells were inoculated, with 150 μL in each well containing 450,000 cells. The cell culture plate was incubated in an incubator at 37° C., 5% CO2 for 24 h. After incubation, the culture plate was centrifuged at 1200 rpm for 5 min and the supernatant was collected and stored at −20° C. for determination. The determination of cytokine was performed using Cytometric Bead Array (CBA) of BD-Pharmingen on flow cytometer. Using the above determining method, the lowest drug concentration stimulating the production of 30 pg/mL of IFN-α was designated as the MEC value in the cytokine stimulating test.

[2] = High temperature stability test (60° C., open container); type: physicochemical; conditions: for Appearance / Content / Total content of impurities: open container
Experimental: The crystal form A of the compound of formula I was tested in the accelerated test under high temperature conditions for stability in accordance with Guidelines for the Stability Test of Pharmaceutical Ingredients and Pharmaceutical Preparations (Chinese Pharmacopoeia 2010 Appendix XIXC).
The crystal form A prepared in Example 1 was placed in an open-clean container at 60° C. The samples were taken for test on day 10, day 20 and day 30, respectively.

[3] = High humidity stability test (40° C./75% humidity, open); type: physicochemical; conditions: for Appearance / Content / Total content of impurities: 40° C./75% humidity (open)
Experimental: The crystal form A of the compound of formula I was tested in the accelerated test under high humidity conditions for stability in accordance with Guidelines for the Stability Test of Pharmaceutical Ingredients and Pharmaceutical Preparations (Chinese Pharmacopoeia 2010 Appendix XIXC).
The crystal form A prepared in Example 1 was subjected to an accelerated test in a constant temperature and humidity vessel under the conditions of 40° C./75% humidity (open). The samples were taken for test on day 30, day 60 and day 90, respectively.

CCCCOc1nc(N)c2[nH]cc(Cc3ccc(CN4CCCC4)cc3)c2n1 [Compound of formula I, 2-butoxy-7-(4-(pyrrolidin-1-ylmethyl)benzyl)-5H-pyrrolo[3,2-d]pyrimidin-4-amine]
in vitro receptor binding activity to Toll-like receptor 7 compared with control GS-9620 (in words) (Toll-like receptor 7): higher in vitro receptor binding activity to Toll-like receptor 7 than the control
in vitro receptor binding activity to Toll-like receptor 8 compared with control GS-9620 (in words) (Toll-like receptor 8): lower in vitro receptor binding activity to Toll-like receptor 8 than the control
TNF-α MEC [1]: 500 nM
IFN-α MEC [1]: 5 nM
TNF-α inducing activity compared with control GS-9620 (in words) ([1]; versus GS-9620): comparable TNF-α inducing activity
in vitro IFN-α inducing activity of PBMCs compared with control GS-9620 (in words) ([1]; versus GS-9620): better in vitro IFN-α inducing activity of PBMCs

CCCCOc1nc(N)c2c(n1)N(Cc1cccc(CN3CCCC3)c1)CC(=O)N2 [GS-9620, reference compound]
TNF-α MEC [1]: 500 nM
IFN-α MEC [1]: 50 nM

CCCCOc1nc(N)c2[nH]cc(Cc3ccc(CN4CCCC4)cc3)c2n1 [crystal form A, 2-butoxy-7-(4-(pyrrolidin-1-ylmethyl)benzyl)-5H-pyrrolo[3,2-d]pyrimidin-4-amine]
Appearance ([2]; day 0 (initial)): White powder
Content ([2]; day 0 (initial)): 99.8%
Total content of impurities ([2]; day 0 (initial)): 0.92%
Appearance ([2]; day 10): Light yellow powder
Content ([2]; day 10): 98.5%
Total content of impurities ([2]; day 10): 1.10%
Appearance ([2]; day 20): Light yellow powder
Content ([2]; day 20): 98.1%
Total content of impurities ([2]; day 20): 1.18%
Appearance ([2]; day 30): Light yellow powder
Content ([2]; day 30): 98.8%
Total content of impurities ([2]; day 30): 1.29%
stability in high temperature conditions (in words) ([2]; up to 30 days): good stability in high temperature conditions
Appearance ([3]; day 0 (initial)): White powder
Content ([3]; day 0 (initial)): 100.2%
Total content of impurities ([3]; day 0 (initial)): 0.92%
Appearance ([3]; day 30): White powder
Content ([3]; day 30): 99.9%
Total content of impurities ([3]; day 30): 0.92%
Appearance ([3]; day 60): White powder
Content ([3]; day 60): 99.9%
Total content of impurities ([3]; day 60): 0.65%
Appearance ([3]; day 90): White powder
Content ([3]; day 90): 100.2%
Total content of impurities ([3]; day 90): 0.93%
stability in high humidity conditions (in words) ([3]; 40° C./75% humidity, up to 90 days): good stability in high humidity conditions
